Experimental data published in the supplement of paper PMC10307832.

Tests used:
Experiment in all cases: relative viability (nuclei count vs DMSO), 5 days (fraction); higher = more cells survive
AZ505 + Olaparib = compound: C1CCC(CC1)N(CCNCCC2=C3C(=C(C=C2)O)NC(=O)CO3)C(=O)CCNCCC4=CC(=C(C=C4)Cl)Cl [AZ505] + O=C(c1cc(Cc2n[nH]c(=O)c3ccccc23)ccc1F)N1CCN(C(=O)C2CC2)CC1 [Olaparib] (partner 8 µM)
In short: (§1)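 Relative viability is defined as nuclei in treated wells over nuclei in vehicle wells. Duplicate plates were run and medians reported. Lung cancer cell lines in 1536-well plates were dosed by pin tool one day after seeding, with one drug or with a fixed anchor-drug dose plus five library-drug doses (not always all listed) in √10 steps, and nuclei were counted after 5 days.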

Dactolisib + Crizotinib = compound: Cn1c(=O)n(-c2ccc(C(C)(C)C#N)cc2)c2c3cc(-c4cnc5ccccc5c4)ccc3ncc21 [Dactolisib] + C[C@@H](Oc1cc(-c2cnn(C3CCNCC3)c2)cnc1N)c1c(Cl)ccc(F)c1Cl [Crizotinib] (partner 1 µM)
In short: as §1

AZ505 + AZD7762 = compound: C1CCC(CC1)N(CCNCCC2=C3C(=C(C=C2)O)NC(=O)CO3)C(=O)CCNCCC4=CC(=C(C=C4)Cl)Cl [AZ505] + NC(=O)Nc1cc(-c2cccc(F)c2)sc1C(=O)N[C@H]1CCCNC1 [AZD7762] (partner 0.2 µM)
In short: as §1

Dactolisib + Foretinib = compound: Cn1c(=O)n(-c2ccc(C(C)(C)C#N)cc2)c2c3cc(-c4cnc5ccccc5c4)ccc3ncc21 [Dactolisib] + COc1cc2c(Oc3ccc(NC(=O)C4(C(=O)Nc5ccc(F)cc5)CC4)cc3F)ccnc2cc1OCCCN1CCOCC1 [Foretinib] (partner 0.25 µM)
In short: as §1

Cell Line	relative viability (AZ505 + Olaparib; first compound 0.08 µM)	relative viability (AZ505 + Olaparib; first compound 0.253 µM)	relative viability (AZ505 + Olaparib; first compound 0.8 µM)	relative viability (AZ505 + Olaparib; first compound 2.53 µM)	relative viability (AZ505 + Olaparib; first compound 8 µM)	relative viability (Dactolisib + Crizotinib; first compound 0.002 µM)	relative viability (Dactolisib + Crizotinib; first compound 0.006325 µM)	relative viability (Dactolisib + Crizotinib; first compound 0.02 µM)	relative viability (Dactolisib + Crizotinib; first compound 0.06325 µM)	relative viability (Dactolisib + Crizotinib; first compound 0.2 µM)	relative viability (AZ505 + AZD7762; first compound 0.08 µM)	relative viability (AZ505 + AZD7762; first compound 0.253 µM)	relative viability (AZ505 + AZD7762; first compound 0.8 µM)	relative viability (AZ505 + AZD7762; first compound 2.53 µM)	relative viability (AZ505 + AZD7762; first compound 8 µM)	relative viability (Dactolisib + Foretinib; first compound 0.002 µM)	relative viability (Dactolisib + Foretinib; first compound 0.006325 µM)	relative viability (Dactolisib + Foretinib; first compound 0.02 µM)	relative viability (Dactolisib + Foretinib; first compound 0.06325 µM)	relative viability (Dactolisib + Foretinib; first compound 0.2 µM)
HCC-44	0.928	1.01	1.02	1	1.05	0.879	0.763	0.816	0.446	0.414	1	0.964	0.916	1.03	1.02	–	–	–	–	–
HCC-78	–	–	0.878	0.829	1.03	0.316	0.331	0.285	0.266	0.222	–	–	0.75	0.719	0.558	0.629	0.589	0.451	0.376	0.338
HCC-366	0.277	0.439	0.315	0.412	0.406	0.409	0.574	0.531	0.302	0.168	0.357	0.215	0.281	0.151	0.247	0.914	0.986	0.955	0.94	0.368
IA-LM	0.78	0.846	0.807	0.902	0.889	0.903	0.561	0.539	0.162	0.0865	–	–	–	–	–	1.28	1.07	0.837	0.497	0.453
NCI-H520	0.288	0.279	0.367	0.302	0.349	0.813	0.658	0.539	0.207	0.174	–	–	–	–	–	0.736	0.507	0.464	0.278	0.198
NCI-H522	0.607	0.645	0.698	0.698	0.685	–	–	–	–	–	0.678	0.747	0.727	1.11	0.887	–	–	–	–	–
NCI-H661	0.732	0.751	0.728	0.709	0.727	0.987	0.979	1.14	0.779	0.613	–	–	–	–	–	1.04	1.01	0.977	0.439	0.459
NCI-H1299	0.897	0.925	0.932	0.885	0.876	0.941	0.964	0.997	0.76	0.649	–	–	–	–	–	1.09	1.1	1.11	0.982	1.06
NCI-H1395	0.427	–	0.456	0.489	0.392	–	–	–	–	–	0.407	–	0.413	0.386	0.382	1.03	0.916	0.942	0.636	0.537
NCI-H1563	–	–	–	–	–	0.839	0.789	0.76	0.62	0.597	–	–	–	–	–	0.919	0.885	0.913	0.654	0.651
NCI-H1623	–	–	–	–	–	–	–	–	–	–	–	–	–	–	–	0.907	0.882	0.768	0.596	0.418
NCI-H1648	–	0.794	0.795	0.754	1.38	–	–	–	–	–	–	0.755	0.921	0.818	0.825	–	–	–	–	–
NCI-H1650	0.723	0.803	0.735	0.727	0.853	0.832	0.944	0.718	0.823	0.559	–	–	–	–	–	1.08	1.05	0.919	0.781	0.531
NCI-H1792	0.432	0.447	0.404	0.517	0.321	1.15	0.971	0.921	0.601	0.294	0.627	0.247	0.544	0.642	0.833	–	–	–	–	–
NCI-H1793	0.696	0.885	0.769	0.772	0.972	–	–	–	–	–	0.466	0.513	0.574	0.404	0.407	0.655	0.416	0.241	0.2	0.166
NCI-H2009	0.64	0.675	0.647	0.652	0.629	1.01	1.05	1.02	0.986	0.566	–	–	–	–	–	1.28	1.24	1.06	1.2	0.625
NCI-H2023	0.414	0.496	0.499	0.471	0.43	0.599	0.576	0.437	0.176	0.129	–	–	–	–	–	–	0.672	0.491	0.343	0.153
NCI-H2228	0.669	0.627	0.524	0.863	0.481	0.601	0.283	0.297	0.252	0.175	–	–	–	–	–	0.875	0.675	0.406	0.191	0.181
NCI-H2342	0.428	0.463	0.491	0.485	0.488	–	–	–	–	–	0.538	0.488	0.489	0.686	0.563	1.1	0.96	0.855	0.679	0.525
SK-LU-1	0.268	0.364	0.349	0.314	0.326	0.912	0.936	0.681	0.455	0.352	–	–	–	–	–	0.806	0.713	0.575	0.382	0.245
SK-MES-1	0.682	0.694	0.662	0.603	0.719	1.14	0.989	0.986	0.632	0.567	–	–	–	–	–	1.04	0.818	0.906	0.571	0.397
SW 900	0.853	0.775	0.86	0.932	0.987	–	–	–	–	–	0.576	0.295	0.611	0.569	0.75	1.03	0.828	0.832	0.576	0.3
SW 1573	0.391	0.493	0.425	0.468	0.467	0.989	0.712	0.66	0.572	0.317	–	–	–	–	–	0.996	0.964	0.875	0.34	0.371
